# From ChEMBL document CHEMBL6078657, “Thiazolidinedione-based structure modification of ergosterol peroxide provides thiazolidinedione-conjugated derivatives as potent agents against breast cancer cells through a PI3K/AKT/mTOR pathway” (Bioorg Med Chem, 2025)
# What was measured:
# Format in all cases: functional, cell-based
# [1] = test system: MCF7; assay: Antiproliferative activity against human MCF7 cells assessed as cell viability measured after 48 hrs incubation by MTT assay; details: MCF7, 48 h
# [2] = test system: A549; assay: Antiproliferative activity against human A549 cells assessed as cell viability measured after 48 hrs incubation by MTT assay; details: A549, 48 h
# [3] = test system: HepG2; assay: Antiproliferative activity against human HepG2 cells assessed as cell viability measured after 48 hrs incubation by MTT assay; details: HepG2, 48 h
compound,measurement,setting,value
CC(C)[C@@H](C)/C=C/[C@@H](C)[C@H]1CC[C@@H]2[C@]1(C)CC[C@H]1[C@]23C=C[C@]2(C[C@@H](OC(=O)N4CCN(C(=O)CN5C(=O)S/C(=C\c6ccsc6)C5=O)CC4)CC[C@]12C)OO3,IC50,[1],13.6 µM
same,IC50,[2],8.14 µM
same,IC50,[3],16.8 µM
CC(C)[C@@H](C)/C=C/[C@@H](C)[C@H]1CC[C@@H]2[C@]1(C)CC[C@H]1[C@]23C=C[C@]2(C[C@@H](OC(=O)CN4C(=O)S/C(=C/c5ccc(C(C)(C)C)cc5)C4=O)CC[C@]12C)OO3,IC50,[1],9.44 µM
same,IC50,[2],8.31 µM
same,IC50,[3],15.4 µM
CC(C)[C@@H](C)/C=C/[C@@H](C)[C@H]1CC[C@@H]2[C@]1(C)CC[C@H]1[C@]23C=C[C@]2(C[C@@H](OC(=O)N4CCN(C(=O)CN5C(=O)S/C(=C\c6ccc(F)c(Cl)c6)C5=O)CC4)CC[C@]12C)OO3,IC50,[1],15.2 µM
same,IC50,[2],12.5 µM
same,IC50,[3],13.7 µM
CC(C)[C@@H](C)/C=C/[C@@H](C)[C@H]1CC[C@@H]2[C@]1(C)CC[C@H]1[C@]23C=C[C@]2(C[C@@H](OC(=O)CN4C(=O)S/C(=C/c5ccc(Br)cc5)C4=O)CC[C@]12C)OO3,IC50,[1],12.3 µM
same,IC50,[2],9.5 µM
same,IC50,[3],17.8 µM
CC(C)[C@@H](C)/C=C/[C@@H](C)[C@H]1CC[C@@H]2[C@]1(C)CC[C@H]1[C@]23C=C[C@]2(C[C@@H](OC(=O)N4CCN(C(=O)CN5C(=O)S/C(=C\c6ccoc6)C5=O)CC4)CC[C@]12C)OO3,IC50,[1],16.7 µM
same,IC50,[2],10.4 µM
same,IC50,[3],19.8 µM
CC(C)[C@@H](C)/C=C/[C@@H](C)[C@H]1CC[C@H]2C3=CC=C4C[C@@H](OC(=O)NCCNC(=O)CN5C(=O)S/C(=C\C6CC6)C5=O)CC[C@]4(C)[C@H]3CC[C@]12C,IC50,[1],> 80 µM
same,IC50,[2],> 80 µM
same,IC50,[3],> 80 µM
CC(C)[C@@H](C)/C=C/[C@@H](C)[C@H]1CC[C@@H]2[C@]1(C)CC[C@H]1[C@]23C=C[C@]2(C[C@@H](OC(=O)CN4C(=O)S/C(=C/C5CC5)C4=O)CC[C@]12C)OO3,IC50,[1],9.35 µM
same,IC50,[2],13 µM
same,IC50,[3],13.1 µM
CC(C)[C@@H](C)/C=C/[C@@H](C)[C@H]1CC[C@@H]2[C@]1(C)CC[C@H]1[C@]23C=C[C@]2(C[C@@H](OC(=O)CN4C(=O)S/C(=C/c5ccc(Cl)cc5Cl)C4=O)CC[C@]12C)OO3,IC50,[1],10.2 µM
same,IC50,[2],11 µM
same,IC50,[3],13.1 µM
COc1ccccc1/C=C1\SC(=O)N(CC(=O)N2CCN(C(=O)O[C@H]3CC[C@]4(C)[C@H]5CC[C@]6(C)[C@@H]([C@H](C)/C=C/[C@H](C)C(C)C)CC[C@H]6[C@@]56C=C[C@]4(C3)OO6)CC2)C1=O,IC50,[1],15.4 µM
same,IC50,[2],10.2 µM
same,IC50,[3],22.6 µM
CC(C)[C@@H](C)/C=C/[C@@H](C)[C@H]1CC[C@@H]2[C@]1(C)CC[C@H]1[C@]23C=C[C@]2(C[C@@H](OC(=O)N4CCN(C(=O)CN5C(=O)S/C(=C\c6cccc7ccccc67)C5=O)CC4)CC[C@]12C)OO3,IC50,[1],9.41 µM
same,IC50,[2],7.88 µM
same,IC50,[3],14.5 µM
COc1ccc(/C=C2/SC(=O)N(CC(=O)O[C@H]3CC[C@]4(C)[C@H]5CC[C@]6(C)[C@@H]([C@H](C)/C=C/[C@H](C)C(C)C)CC[C@H]6[C@@]56C=C[C@]4(C3)OO6)C2=O)cc1,IC50,[1],18.4 µM
same,IC50,[2],9.91 µM
same,IC50,[3],10.7 µM
CC(C)[C@@H](C)/C=C/[C@@H](C)[C@H]1CC[C@@H]2[C@]1(C)CC[C@H]1[C@]23C=C[C@]2(C[C@@H](OC(=O)CN4C(=O)S/C(=C/c5ccc(F)cc5)C4=O)CC[C@]12C)OO3,IC50,[1],16.1 µM
same,IC50,[2],11.7 µM
same,IC50,[3],14.7 µM
CC(C)[C@@H](C)/C=C/[C@@H](C)[C@H]1CC[C@@H]2[C@]1(C)CC[C@H]1[C@]23C=C[C@]2(C[C@@H](OC(=O)CN4C(=O)S/C(=C/c5cccc6ccccc56)C4=O)CC[C@]12C)OO3,IC50,[1],14.7 µM
same,IC50,[2],10.3 µM
same,IC50,[3],6.08 µM
CC(C)[C@@H](C)/C=C/[C@@H](C)[C@H]1CC[C@@H]2[C@]1(C)CC[C@H]1[C@]23C=C[C@]2(C[C@@H](OC(=O)N4CCN(C(=O)CN5C(=O)S/C(=C\c6ccc(F)cc6)C5=O)CC4)CC[C@]12C)OO3,IC50,[1],12.2 µM
same,IC50,[2],9.34 µM
same,IC50,[3],12 µM
CC(C)[C@@H](C)/C=C/[C@@H](C)[C@H]1CC[C@@H]2[C@]1(C)CC[C@H]1[C@]23C=C[C@]2(C[C@@H](OC(=O)N4CCN(C(=O)CN5C(=O)S/C(=C\c6ccc(Cl)cc6Cl)C5=O)CC4)CC[C@]12C)OO3,IC50,[1],12.9 µM
same,IC50,[2],11.7 µM
same,IC50,[3],15.6 µM
COc1cccc(/C=C2/SC(=O)N(CC(=O)O[C@H]3CC[C@]4(C)[C@H]5CC[C@]6(C)[C@@H]([C@H](C)/C=C/[C@H](C)C(C)C)CC[C@H]6[C@@]56C=C[C@]4(C3)OO6)C2=O)c1,IC50,[1],17 µM
same,IC50,[2],10.8 µM
same,IC50,[3],15.3 µM
COc1ccc(/C=C2\SC(=O)N(CC(=O)N3CCN(C(=O)O[C@H]4CC[C@]5(C)[C@H]6CC[C@]7(C)[C@@H]([C@H](C)/C=C/[C@H](C)C(C)C)CC[C@H]7[C@@]67C=C[C@]5(C4)OO7)CC3)C2=O)cc1,IC50,[1],13.7 µM
same,IC50,[2],6.24 µM
same,IC50,[3],8.85 µM
CC(C)[C@@H](C)/C=C/[C@@H](C)[C@H]1CC[C@@H]2[C@]1(C)CC[C@H]1[C@]23C=C[C@]2(C[C@@H](OC(=O)CN4C(=O)S/C(=C/c5ccc(Cl)cc5)C4=O)CC[C@]12C)OO3,IC50,[1],9.92 µM
same,IC50,[2],9.18 µM
same,IC50,[3],13.5 µM
COc1ccc(/C=C2/SC(=O)N(CC(=O)O[C@H]3CC[C@]4(C)[C@H]5CC[C@]6(C)[C@@H]([C@H](C)/C=C/[C@H](C)C(C)C)CC[C@H]6[C@@]56C=C[C@]4(C3)OO6)C2=O)c(OC)c1OC,IC50,[1],9.66 µM
same,IC50,[2],9.1 µM
same,IC50,[3],10.9 µM
Cc1ccc(/C=C2\SC(=O)N(CC(=O)N3CCN(C(=O)O[C@H]4CC[C@]5(C)[C@H]6CC[C@]7(C)[C@@H]([C@H](C)/C=C/[C@H](C)C(C)C)CC[C@H]7[C@@]67C=C[C@]5(C4)OO7)CC3)C2=O)cc1,IC50,[1],9.45 µM
same,IC50,[2],7.01 µM
same,IC50,[3],10.4 µM
CC(C)[C@@H](C)/C=C/[C@@H](C)[C@H]1CC[C@@H]2[C@]1(C)CC[C@H]1[C@]23C=C[C@]2(C[C@@H](OC(=O)CN4C(=O)S/C(=C/c5ccc(F)c(Cl)c5)C4=O)CC[C@]12C)OO3,IC50,[1],11.1 µM
same,IC50,[2],7.92 µM
same,IC50,[3],15.8 µM
CC(C)[C@@H](C)/C=C/[C@@H](C)[C@H]1CC[C@@H]2[C@]1(C)CC[C@H]1[C@]23C=C[C@]2(C[C@@H](OC(=O)N4CCN(C(=O)CN5C(=O)S/C(=C\c6ccc(Cl)cc6)C5=O)CC4)CC[C@]12C)OO3,IC50,[1],8.94 µM
same,IC50,[2],5.94 µM
same,IC50,[3],9.58 µM
COc1cccc(/C=C2\SC(=O)N(CC(=O)N3CCN(C(=O)O[C@H]4CC[C@]5(C)[C@H]6CC[C@]7(C)[C@@H]([C@H](C)/C=C/[C@H](C)C(C)C)CC[C@H]7[C@@]67C=C[C@]5(C4)OO7)CC3)C2=O)c1,IC50,[1],14.3 µM
same,IC50,[2],10.1 µM
same,IC50,[3],12.7 µM
CC(C)[C@@H](C)/C=C/[C@@H](C)[C@H]1CC[C@@H]2[C@]1(C)CC[C@H]1[C@]23C=C[C@]2(C[C@@H](OC(=O)N4CCN(C(=O)CN5C(=O)CSC5=O)CC4)CC[C@]12C)OO3,IC50,[1],6.37 µM
same,IC50,[2],4.82 µM
same,IC50,[3],8.97 µM
COc1ccc(/C=C2\SC(=O)N(CC(=O)N3CCN(C(=O)O[C@H]4CC[C@]5(C)[C@H]6CC[C@]7(C)[C@@H]([C@H](C)/C=C/[C@H](C)C(C)C)CC[C@H]7[C@@]67C=C[C@]5(C4)OO7)CC3)C2=O)cc1OC,IC50,[1],13.6 µM
same,IC50,[2],7.75 µM
same,IC50,[3],21.5 µM
CC(C)[C@@H](C)/C=C/[C@@H](C)[C@H]1CC[C@@H]2[C@]1(C)CC[C@H]1[C@]23C=C[C@]2(C[C@@H](OC(=O)CN4C(=O)S/C(=C/c5ccco5)C4=O)CC[C@]12C)OO3,IC50,[1],21 µM
same,IC50,[2],15 µM
same,IC50,[3],20.2 µM
CC(C)[C@@H](C)/C=C/[C@@H](C)[C@H]1CC[C@@H]2[C@]1(C)CC[C@H]1[C@]23C=C[C@]2(C[C@@H](OC(=O)N4CCN(C(=O)CN5C(=O)S/C(=C\c6ccccc6)C5=O)CC4)CC[C@]12C)OO3,IC50,[1],8.48 µM
same,IC50,[2],6.05 µM
same,IC50,[3],9.71 µM
COc1ccccc1/C=C1/SC(=O)N(CC(=O)O[C@H]2CC[C@]3(C)[C@H]4CC[C@]5(C)[C@@H]([C@H](C)/C=C/[C@H](C)C(C)C)CC[C@H]5[C@@]45C=C[C@]3(C2)OO5)C1=O,IC50,[1],14.3 µM
same,IC50,[2],13.1 µM
same,IC50,[3],18.9 µM
COc1ccc(/C=C2/SC(=O)N(CC(=O)O[C@H]3CC[C@]4(C)[C@H]5CC[C@]6(C)[C@@H]([C@H](C)/C=C/[C@H](C)C(C)C)CC[C@H]6[C@@]56C=C[C@]4(C3)OO6)C2=O)cc1OC,IC50,[1],13.6 µM
same,IC50,[2],15.2 µM
same,IC50,[3],18 µM
CC(C)[C@@H](C)/C=C/[C@@H](C)[C@H]1CC[C@@H]2[C@]1(C)CC[C@H]1[C@]23C=C[C@]2(C[C@@H](OC(=O)N4CCN(C(=O)CN5C(=O)S/C(=C\c6ccc(C(C)(C)C)cc6)C5=O)CC4)CC[C@]12C)OO3,IC50,[1],14.4 µM
same,IC50,[2],11.6 µM
same,IC50,[3],19.5 µM
CC(C)[C@@H](C)/C=C/[C@@H](C)[C@H]1CC[C@@H]2[C@]1(C)CC[C@H]1[C@]23C=C[C@]2(C[C@@H](OC(=O)N4CCN(C(=O)CN5C(=O)S/C(=C\c6ccc(Br)cc6)C5=O)CC4)CC[C@]12C)OO3,IC50,[1],10.4 µM
same,IC50,[2],5.74 µM
same,IC50,[3],12.4 µM
COc1ccc(/C=C2\SC(=O)N(CC(=O)N3CCN(C(=O)O[C@H]4CC[C@]5(C)[C@H]6CC[C@]7(C)[C@@H]([C@H](C)/C=C/[C@H](C)C(C)C)CC[C@H]7[C@@]67C=C[C@]5(C4)OO7)CC3)C2=O)c(OC)c1OC,IC50,[1],8.96 µM
same,IC50,[2],5.17 µM
same,IC50,[3],9.75 µM
CC(C)[C@@H](C)/C=C/[C@@H](C)[C@H]1CC[C@H]2C3=CC=C4C[C@@H](OC(=O)NCCNC(=O)CN5C(=O)S/C(=C\c6cccc7ccccc67)C5=O)CC[C@]4(C)[C@H]3CC[C@]12C,IC50,[1],> 80 µM
same,IC50,[2],> 80 µM
same,IC50,[3],> 80 µM
